Experimental data reported in US6342604B1, “Substitute pyrimidine compounds and the use thereof” (BASF Aktiengesellschaft, priority 1994, dated 2002).
Like-named read-outs stand apart in the source and are kept apart here.

Molecular target: T1, human D3 receptor (Homo sapiens, UniProt P35462)
T1 construct: host or cells: CCL 1.3 mouse fibroblasts
Experiment: D3 receptor binding assay (125I-iodosulpiride displacement)
Conditions: for Selectivity Ki D2/Ki D3: ratio of Ki D2 (3H-spiperone) to Ki D3 (125I-sulpiride)
Method: Cloned human D3 receptor-expressing CCL 1.3 mouse fibroblasts obtained from Res. Biochemicals Internat. One Strathmore Rd., Natick, Mass.
After 48 h, the cells were washed with PBS and incubated with 0.05% trypsin-containing PBS for 5 min. Neutralization with medium was then carried out, and the cells were collected by centrifugation at 300 xg. To lyze the cells, the pellet was briefly washed with lysis buffer (5 mM tris-HCl, pH 7.4, with 10% glycerol) and then incubated in a concentration of 10^7 cells/ml of lysis buffer at 4° C. for 30 min. The cells were centrifuged at 200 xg for 10 min and the pellet was stored in liquid nitrogen.
The non-specific binding was determined using 10^−6 M spiperone.
After 60 min, the free and the bound radioligand was separated by filtration through GF/B glass fiber filters (Whatman, England) on a Skatron cell collector (Skatron, Lier, Norway), and the filters were washed with ice-cold tris-HCl buffer, pH 7.4. The radioactivity collected on the filters was quantified using a Packard 2200 CA liquid scintillation counter.
The Ki values were determined by non-linear regression analysis using the LIGAND program.

[1] = cloned human D3 receptor, CCL 1.3 mouse fibroblast membranes, 0.1 nM 125iodosulpiride, read-out: Receptor binding D3 125I-sulpiride Ki

T1 sequence (P35462 whole entry): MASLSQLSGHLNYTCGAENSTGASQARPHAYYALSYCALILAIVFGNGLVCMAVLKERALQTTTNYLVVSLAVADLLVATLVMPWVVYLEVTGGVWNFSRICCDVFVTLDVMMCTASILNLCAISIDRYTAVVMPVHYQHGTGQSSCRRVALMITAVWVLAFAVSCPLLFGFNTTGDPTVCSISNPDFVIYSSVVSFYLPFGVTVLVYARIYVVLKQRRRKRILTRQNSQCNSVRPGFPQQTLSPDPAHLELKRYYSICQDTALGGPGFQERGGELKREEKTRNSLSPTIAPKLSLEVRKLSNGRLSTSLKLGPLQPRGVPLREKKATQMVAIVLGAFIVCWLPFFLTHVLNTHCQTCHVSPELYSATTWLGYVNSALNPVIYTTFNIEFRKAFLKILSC

In the case of `Oc1ccnc(SCCCN2CCN(c3cccc(C(F)(F)F)c3)CC2)n1` [Example 12], the Ki is reported as 4.2 nM and the “Selectivity Ki D2/Ki D3” value is reported as 85.
In the case of `Oc1ccnc(SC/C=C/CN2CCN(c3cccc(C(F)(F)F)c3)CC2)n1` [Example 13], the Ki [1] is reported as 2.3 nM and the “Selectivity Ki D2/Ki D3” value is reported as 61.
For `CC(C)c1cccc(N2CCN(CCCSc3nccc(O)n3)CC2)c1` [Example 17], the Ki [1] was 2.8 nM and the “Selectivity Ki D2/Ki D3” value was 71.
With `Oc1ccnc(SCCCN2CC=C(c3cccc(C(F)(F)F)c3)CC2)n1` [Example 19] the Ki was 3 nM and the “Selectivity Ki D2/Ki D3” value was 58.
